# Measured values taken from US20190374543A1, “Therapeutic Combinations of an Antifolate and a BTK Inhibitor” (Acerta Pharma B.V., priority 2016, published 2019).
# Legend:
# Type in all cases: in vivo
# [1] = test system: type II collagen arthritis; assay: mouse type II collagen arthritis model: body weight, daily clinical arthritis scores (AUC), incidence
# [2] = test system: type II collagen arthritis; assay: histopathology of paws and knees in mouse type II collagen arthritis model; settings: for Histopathology Summed Scores (All Joints): mean (SE)
# From the text: (§1) On study day 43, mice were euthanized and necropsy specimens were obtained. After terminal bleeds, animals were euthanized by cervical dislocation. Fore paws, hind paws, and knees were harvested and placed in 10% neutral buffered formalin (NBF) for microscopy. Spleens were harvested from a subset of mice and processed for splenocytes.
# After 1-2 days in fixative and 4-5 days in 5% formic acid for decalcification, tissues were trimmed, and processed for paraffin embedding. Paws were embedded in paraffin in the frontal plane and knees were embedded with the patella facing down. Ankles, if left attached to the hind paw, were also embedded in the frontal plane but in some instances were detached and sectioned in the sagittal plane for special purposes. Left/right pairs were typically embedded in the same block. Sections were then cut and stained with toluidine blue.
# When scoring paws or ankles from mice with lesions of type II collagen arthritis, severity of changes as well as number of individual joints affected was considered. When only one to three joints of the paws or ankles out of a possibility of numerous metacarpal/metatarsal/digit or tarsal/tibiotarsal joints was affected, an arbitrary assignment of a maximum score of 0.5, 1, 2 or 3 for parameters below was given depending on severity of changes. If more than three joints were involved, the criteria below were applied to the most severely affected/majority of joints. In the case of knees, severity of changes in medial and lateral, as well as femoropatellar spaces, were considered.
# The following parameters were scored according to the indicated criteria: Inflammation Score, Pannus Score, Cartilage Damage Score, Bone Resorption Score, and Periosteal New Bone Formation Score and Measurements. Unless otherwise indicated, criteria apply to both paws and knees. Mean values for each parameter are determined separately for the paws, knees, and the entire animal (if applicable).
# The Inflammation Score was determined based on the following criteria for Paw Score and Knee Score.
# The Paw Score was classified based on the following criteria: 0=Normal; 0.5=Very minimal, affects only 1 joint or minimal multifocal periarticular infiltration of inflammatory cells; 1=Minimal infiltration of inflammatory cells in synovium and periarticular tissue of affected joints; 2=Mild infiltration of inflammatory cells. If referring to paws, generally restricted to affected joints (1-3 affected); 3=Moderate infiltration with moderate edema. If referring to paws, restricted to affected joints, generally 3-4 joints and the wrist or ankle; 4=Marked infiltration affecting most areas with marked edema, 1 or 2 unaffected joints may be present; 5=Severe diffuse infiltration with severe edema affecting all joints (to some extent) and periarticular tissues.
# The Knee Score was classified based on the following criteria: 0=Normal; 0.5=Very minimal, affects only one area of the synovium or minimal multifocal periarticular infiltration of inflammatory cells; 1=Minimal infiltration of inflammatory cells in synovium and periarticular tissue of affected synovial areas; 2=Mild diffuse infiltration of inflammatory cells; 3=Moderate diffuse infiltration of inflammatory cells; 4=Marked diffuse infiltration of inflammatory cells; 5=Severe diffuse infiltration of inflammatory cells.
# The inflammatory infiltrate in mice and rats with type II collagen arthritis consists of neutrophils and macrophages with smaller numbers of lymphocytes when the lesions are in the acute to subacute phase. Tissue edema and neutrophil exudates within the joint space are common in the acute to subacute phase. As the inflammation progresses to chronic, mononuclear inflammatory cells (monocytes, lymphocytes) predominate and fibroblast proliferation, often with deposition of metachromatic matrix, occurs in synovium and periarticular tissue. Exudate is less common in the joint space.
# BTK = biological target: T1, BTK (Mus musculus, UniProt P35991); assay: BTK occupancy in splenocytes collected after euthanasia; settings: with vs without MTX co-treatment
# T1 construct: from tissue; host or cells: splenocytes from spleens of collagen-induced-arthritis DBA/1 mice
# From the text: as §1
# [3] = 5 mg/kg Formula (2) alone, vs vehicle controls
# [4] = Group 3: MTX vehicle + BTK inhibitor of formula (2) 1 mg/kg PO QD d28-43
# [5] = Group 4: MTX vehicle + BTK inhibitor of formula (2) 5 mg/kg PO QD d28-43
# [6] = Group 5: MTX 0.3 mg/kg PO QD d18-43 + BTK inhibitor of formula (2) vehicle
# [7] = Group 6: MTX 0.5 mg/kg PO QD d18-43 + BTK inhibitor of formula (2) vehicle
# T1 sequence (P35991 whole entry): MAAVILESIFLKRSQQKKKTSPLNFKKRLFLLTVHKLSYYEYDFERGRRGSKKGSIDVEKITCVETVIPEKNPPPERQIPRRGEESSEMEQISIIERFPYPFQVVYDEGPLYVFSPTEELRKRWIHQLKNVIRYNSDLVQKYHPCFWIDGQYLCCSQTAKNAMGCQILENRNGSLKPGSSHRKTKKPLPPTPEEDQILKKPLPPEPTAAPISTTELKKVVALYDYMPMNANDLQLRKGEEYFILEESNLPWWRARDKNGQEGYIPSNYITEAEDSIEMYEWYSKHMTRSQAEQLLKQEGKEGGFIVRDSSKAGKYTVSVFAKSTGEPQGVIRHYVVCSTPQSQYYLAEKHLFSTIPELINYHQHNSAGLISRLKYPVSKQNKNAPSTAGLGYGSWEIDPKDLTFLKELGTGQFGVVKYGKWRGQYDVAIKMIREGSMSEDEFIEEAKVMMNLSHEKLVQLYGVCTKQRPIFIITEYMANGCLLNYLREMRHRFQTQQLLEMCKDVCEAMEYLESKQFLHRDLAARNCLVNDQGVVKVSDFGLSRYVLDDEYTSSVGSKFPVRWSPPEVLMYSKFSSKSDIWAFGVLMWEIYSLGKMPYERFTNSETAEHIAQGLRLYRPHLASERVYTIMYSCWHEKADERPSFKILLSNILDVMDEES
compound,measurement,setting,value
"CC#CC(=O)N1CCC[C@H]1c1nc(-c2ccc(C(=O)Nc3ccccn3)cc2)c2c(N)nccn12 [BTK inhibitor of Formula (2), (S)-4-(8-amino-3-(1-(but-2-ynoyl)pyrrolidin-2-yl)imidazo[1,5-c]pyrazin-1-yl)-N-(pyridin-2-yl)benzamide]",disease-induced body weight loss (percent change from baseline),"[1]; 1 mg/kg Formula (2), vs vehicle controls, Day 36",significantly inhibited
same,daily clinical arthritis scores over time,[1]; [3],differed significantly
same,inhibition of absolute body weight loss at study termination,[1]; [3],66%
same,reduction of arthritis scores AUC Days 18-43,[1]; [3],62%
same,disease-induced body weight loss (percent change from baseline),"[1]; 5 mg/kg Formula (2), vs vehicle controls, Days 32-38 and 43",significantly inhibited
same,clinical arthritis scores,"[1]; 5 mg/kg Formula (2), vs vehicle controls, Study Days 30-43",significantly reduced
same,Change in Body Weight (g) Day 18-43,[1]; [4],-0.19 g
same,Clinical Arthritis Score AUC Day 18-43,[1]; [4],61.41
same,Clinical Arthritis Score AUC Day 28-43,[1]; [4],54.81
same,Percent Incidence,[1]; [4],100%
same,Change in Body Weight (g) Day 18-43,[1]; [5],*0.12 g
same,Clinical Arthritis Score AUC Day 18-43,[1]; [5],*27.30
same,Clinical Arthritis Score AUC Day 28-43,[1]; [5],*21.27
same,Percent Incidence,"[1]; Group 4: MTX vehicle + BTK inhibitor of formula (2) 5 mg/kg PO QD d28-43, at termination, 5 mg/kg",42%
same,Percent Incidence,"[1]; Group 4: MTX vehicle + BTK inhibitor of formula (2) 5 mg/kg PO QD d28-43, at termination, listed as BTK inhibitor of formula (2), 5 mg/kg",42%
same,reduction of knee bone resorption,[2]; [3],90%
same,reduction of knee inflammation,[2]; [3],72%
same,reduction of knee pannus formation,[2]; [3],85%
same,reduction of summed knee histopathology scores,[2]; [3],74%
same,reduction of summed paw histopathology scores,[2]; [3],72%
same,reduction of summed six-joint mean histopathology scores,[2]; [3],73%
same,reductions of all paw histopathology parameters,[2]; [3],59-82%
same,reductions of all six-joint mean histopathology parameters,[2]; [3],63-82%
same,reductions of paw and six-joint mean periosteal bone widths,[2]; [3],82-83%
same,Histopathology Summed Scores (All Joints),[2]; [4],11.03 (1.01)
same,Histopathology Summed Scores (All Joints),[2]; [5],*4.15 (1.01)
same,Btk occupancy in splenocytes,BTK,the same in the presence or absence of MTX
"CN(Cc1cnc2nc(N)nc(N)c2n1)c1ccc(C(=O)N[C@@H](CCC(=O)O)C(=O)O)cc1 [MTX, (2S)-2-[(4-{[(2,4-Diaminopteridin-6-yl)methyl](methyl)amino}benzoyl)amino]pentanedioic acid, reference compound]",daily clinical arthritis scores over time,"[1]; 0.5 mg/kg MTX alone, vs vehicle controls",differed significantly
same,clinical arthritis scores,"[1]; 0.5 mg/kg MTX, vs vehicle controls, Days 25-29",significantly reduced
same,Change in Body Weight (g) Day 18-43,[1]; [6],-1.16 g
same,Clinical Arthritis Score AUC Day 18-43,[1]; [6],51.72
same,Clinical Arthritis Score AUC Day 28-43,[1]; [6],48.82
same,Percent Incidence,[1]; [6],100%
same,Change in Body Weight (g) Day 18-43,[1]; [7],-0.83 g
same,Clinical Arthritis Score AUC Day 18-43,[1]; [7],46.79
same,Clinical Arthritis Score AUC Day 28-43,[1]; [7],45.51
same,Percent Incidence,[1]; [7],100%
same,Histopathology Summed Scores (All Joints),[2]; [6],10.24 (1.66)
same,Histopathology Summed Scores (All Joints),[2]; [7],8.46 (1.36)
